Test results from patent US20100041089A1, “IMPROVED METHOD FOR DETECTING CHEMICAL […]” (priority 2006, published 2010).

Tested on: yeast genes (expressed mRNA)
Assay: DNA chip measurement of expressed mRNA of yeast genes after culture with a toxic chemical substance
Assay type: cell-based, Saccharomyces cerevisiae S288C
Details: for level of expressed mRNA in the presence of chemical substance / level in the absence of chemical substance: cultured two hours with the chemical substance; for The level of expressed mRNA in the presence of chemical substance/The level of expressed mRNA in the absence of chemical substance: cultured two hours with substance
Outline: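 Fluorescence ratio, treated over untreated, read by chip scanner; ratio of two or more counted significant. Cells: S288C yeast, YPD, 25° C, chemical added at log phase for 2 h at growth-inhibiting, sublethal level. Cy3/Cy5-labeled cDNA from oligo-dT-purified mRNA.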

Na2As [(1)]
The level of expressed mRNA in the presence of chemical substance/The level of expressed mRNA in the absence of chemical substance, yeast gene YBR036C (gene YBR036C, Metabolism protein genes, DNA chip fluorescence ratio): 0.8
The level of expressed mRNA in the presence of chemical substance/The level of expressed mRNA in the absence of chemical substance, yeast gene YBR298C (gene YBR298C, Metabolism protein genes, DNA chip fluorescence ratio): 1.1
The level of expressed mRNA in the presence of chemical substance/The level of expressed mRNA in the absence of chemical substance, yeast gene YDL067C (gene YDL067C (mitochondria-located protein gene), yeast cultured two hours with chemical substance, DNA chip fluorescence ratio to control): 1.8
The level of expressed mRNA in the presence of chemical substance/The level of expressed mRNA in the absence of chemical substance, yeast gene YDL078C (gene YDL078C, Metabolism protein genes, DNA chip fluorescence ratio): 0.7
The level of expressed mRNA in the presence of chemical substance/The level of expressed mRNA in the absence of chemical substance, yeast gene YDL215C (gene YDL215C, Metabolism protein genes, DNA chip fluorescence ratio): 1.0
The level of expressed mRNA in the presence of chemical substance/The level of expressed mRNA in the absence of chemical substance, yeast gene YDR079W (gene YDR079W (mitochondria-located protein gene), yeast cultured two hours with chemical substance, DNA chip fluorescence ratio to control): 1.3
The level of expressed mRNA in the presence of chemical substance/The level of expressed mRNA in the absence of chemical substance, yeast gene YDR297W (gene YDR297W, Metabolism protein genes, DNA chip fluorescence ratio): 1.5
The level of expressed mRNA in the presence of chemical substance/The level of expressed mRNA in the absence of chemical substance, yeast gene YDR387C (gene YDR387C, Metabolism protein genes, DNA chip fluorescence ratio): 0.8
The level of expressed mRNA in the presence of chemical substance/The level of expressed mRNA in the absence of chemical substance, yeast gene YGL035C (gene YGL035C, Metabolism protein genes, DNA chip fluorescence ratio): 0.7
The level of expressed mRNA in the presence of chemical substance/The level of expressed mRNA in the absence of chemical substance, yeast gene YGR062C (gene YGR062C (mitochondria-located protein gene), yeast cultured two hours with chemical substance, DNA chip fluorescence ratio to control): 0.9
The level of expressed mRNA in the presence of chemical substance/The level of expressed mRNA in the absence of chemical substance, yeast gene YGR287C (gene YGR287C, Metabolism protein genes, DNA chip fluorescence ratio): 1.3
The level of expressed mRNA in the presence of chemical substance/The level of expressed mRNA in the absence of chemical substance, yeast gene YJL070C (gene YJL070C, Metabolism protein genes, DNA chip fluorescence ratio): 1.3
The level of expressed mRNA in the presence of chemical substance/The level of expressed mRNA in the absence of chemical substance, yeast gene YJL096W (gene YJL096W (mitochondria-located protein gene), yeast cultured two hours with chemical substance, DNA chip fluorescence ratio to control): 1.0
The level of expressed mRNA in the presence of chemical substance/The level of expressed mRNA in the absence of chemical substance, yeast gene YJL180C (gene YJL180C (mitochondria-located protein gene), yeast cultured two hours with chemical substance, DNA chip fluorescence ratio to control): 0.9
The level of expressed mRNA in the presence of chemical substance/The level of expressed mRNA in the absence of chemical substance, yeast gene YKR009C (gene YKR009C, Metabolism protein genes, DNA chip fluorescence ratio): 1.0
The level of expressed mRNA in the presence of chemical substance/The level of expressed mRNA in the absence of chemical substance, yeast gene YLR295C (gene YLR295C (mitochondria-located protein gene), yeast cultured two hours with chemical substance, DNA chip fluorescence ratio to control): 1.4
The level of expressed mRNA in the presence of chemical substance/The level of expressed mRNA in the absence of chemical substance, yeast gene YLR351C (gene YLR351C, Metabolism protein genes, DNA chip fluorescence ratio): 1.0
The level of expressed mRNA in the presence of chemical substance/The level of expressed mRNA in the absence of chemical substance, yeast gene YLR375W (gene YLR375W, Metabolism protein genes, DNA chip fluorescence ratio): 0.9
The level of expressed mRNA in the presence of chemical substance/The level of expressed mRNA in the absence of chemical substance, yeast gene YMR023C (gene YMR023C (mitochondria-located protein gene), yeast cultured two hours with chemical substance, DNA chip fluorescence ratio to control): 1.4
The level of expressed mRNA in the presence of chemical substance/The level of expressed mRNA in the absence of chemical substance, yeast gene YMR267W (gene YMR267W (mitochondria-located protein gene), yeast cultured two hours with chemical substance, DNA chip fluorescence ratio to control): 0.8
The level of expressed mRNA in the presence of chemical substance/The level of expressed mRNA in the absence of chemical substance, yeast gene YMR267W (gene YMR267W, Metabolism protein genes, DNA chip fluorescence ratio): 0.8
The level of expressed mRNA in the presence of chemical substance/The level of expressed mRNA in the absence of chemical substance, yeast gene YMR278W (gene YMR278W, Metabolism protein genes, DNA chip fluorescence ratio): 0.7
The level of expressed mRNA in the presence of chemical substance/The level of expressed mRNA in the absence of chemical substance, yeast gene YMR293C (gene YMR293C, Metabolism protein genes, DNA chip fluorescence ratio): 0.9
The level of expressed mRNA in the presence of chemical substance/The level of expressed mRNA in the absence of chemical substance, yeast gene YNL073W (gene YNL073W (mitochondria-located protein gene), yeast cultured two hours with chemical substance, DNA chip fluorescence ratio to control): 0.8
The level of expressed mRNA in the presence of chemical substance/The level of expressed mRNA in the absence of chemical substance, yeast gene YNR072W (gene YNR072W, Metabolism protein genes, DNA chip fluorescence ratio): 1.1
The level of expressed mRNA in the presence of chemical substance/The level of expressed mRNA in the absence of chemical substance, yeast gene YOL096C (gene YOL096C, Metabolism protein genes, DNA chip fluorescence ratio): 1.1
The level of expressed mRNA in the presence of chemical substance/The level of expressed mRNA in the absence of chemical substance, yeast gene YOR180C (gene YOR180C, Metabolism protein genes, DNA chip fluorescence ratio): 0.8
The level of expressed mRNA in the presence of chemical substance/The level of expressed mRNA in the absence of chemical substance, yeast gene YOR316C (gene YOR316C (mitochondria-located protein gene), yeast cultured two hours with chemical substance, DNA chip fluorescence ratio to control): 0.7
The level of expressed mRNA in the presence of chemical substance/The level of expressed mRNA in the absence of chemical substance, yeast gene YOR363C (gene YOR363C, Metabolism protein genes, DNA chip fluorescence ratio): 0.8
The level of expressed mRNA in the presence of chemical substance/The level of expressed mRNA in the absence of chemical substance, yeast gene YPL040C (gene YPL040C (mitochondria-located protein gene), yeast cultured two hours with chemical substance, DNA chip fluorescence ratio to control): 1.1
The level of expressed mRNA in the presence of chemical substance/The level of expressed mRNA in the absence of chemical substance, yeast gene YPL134C (gene YPL134C (mitochondria-located protein gene), yeast cultured two hours with chemical substance, DNA chip fluorescence ratio to control): 1.5
The level of expressed mRNA in the presence of chemical substance/The level of expressed mRNA in the absence of chemical substance, yeast gene YPR184W (gene YPR184W, Metabolism protein genes, DNA chip fluorescence ratio): 1.2
level of expressed mRNA in the presence of chemical substance / level in the absence of chemical substance (yeast gene YAL018C): 2.0
The level of expressed mRNA in the presence of chemical substance/The level of expressed mRNA in the absence of chemical substance (yeast gene YAL053W): 0.9
level of expressed mRNA in the presence of chemical substance / level in the absence of chemical substance (yeast gene YAR047C): 1.1
level of expressed mRNA in the presence of chemical substance / level in the absence of chemical substance (yeast gene YAR064W): 2.1
level of expressed mRNA in the presence of chemical substance / level in the absence of chemical substance (yeast gene YBL044W): 0.9
The level of expressed mRNA in the presence of chemical substance/The level of expressed mRNA in the absence of chemical substance (yeast gene YBL048W): 2.0
The level of expressed mRNA in the presence of chemical substance/The level of expressed mRNA in the absence of chemical substance (yeast gene YBL107C): 1.4
level of expressed mRNA in the presence of chemical substance / level in the absence of chemical substance (yeast gene YBR012C): 2.5
level of expressed mRNA in the presence of chemical substance / level in the absence of chemical substance (yeast gene YBR066C): 1.9
level of expressed mRNA in the presence of chemical substance / level in the absence of chemical substance (yeast gene YBR124W): 0.9
level of expressed mRNA in the presence of chemical substance / level in the absence of chemical substance (yeast gene YBR162C): 0.6
level of expressed mRNA in the presence of chemical substance / level in the absence of chemical substance (yeast gene YBR287W): 1.7
level of expressed mRNA in the presence of chemical substance / level in the absence of chemical substance (yeast gene YCL056C): 1.3
level of expressed mRNA in the presence of chemical substance / level in the absence of chemical substance (yeast gene YCR007C): 2.2
level of expressed mRNA in the presence of chemical substance / level in the absence of chemical substance (yeast gene YDL046W): 1.2
The level of expressed mRNA in the presence of chemical substance/The level of expressed mRNA in the absence of chemical substance (yeast gene YDL072C): 1.3
The level of expressed mRNA in the presence of chemical substance/The level of expressed mRNA in the absence of chemical substance (yeast gene YDL204W): 1.4
The level of expressed mRNA in the presence of chemical substance/The level of expressed mRNA in the absence of chemical substance (yeast gene YDL222C): 0.9
level of expressed mRNA in the presence of chemical substance / level in the absence of chemical substance (yeast gene YDR090C): 0.9
level of expressed mRNA in the presence of chemical substance / level in the absence of chemical substance (yeast gene YDR128W): 0.6
